Laboratory results taken from USH810H, “Biologically active amides” (priority 1976, dated 1990).

System: isolated mouse vas deferens
Type: cell-based
Method: The compounds were examined for their ability to inhibit neurally evoked contractions of the isolated mouse vas deferens preparation (method of Hughes et al, Brain Research, 88 (1975) 296, using pulses at 0.1 Hz).
The heights of the five contractions that immediately preceded the addition of the first "dose" of test compound were measured and their mean calculated. The resultant mean contraction associated with a particular bath concentration of test compound was calculated from the heights of the 6th, 7th, 8th, 9th and 10th contractions after the addition of the appropriate "dose" of test compound, i.e. the five contractions that immediately preceded the subsequent "dose" or washout.
Generally at least two cumulative dose response curves were constructed and a mean D50 calculated.

Row | SMILES | Relative Potency (Morphine) (RP=antilog[logD50(MORPHINE) - logD50(TEST COMPOUND)], morphine = 1.0) | Reversal of the inhibition of the contractions by naloxone
1 | COC(=O)[C@H](CCSC)NC(=O)[C@H](Cc1ccccc1)NC(=O)CNC(=O)[C@@H](C)NC(=O)[C@@H](N)Cc1ccc(O)cc1 [5(b), H.Tyr. --D-Ala.Gly.Phe.Met.OMe] | 94 | 
2 | CN1CC[C@]23c4c5ccc(O)c4O[C@H]2[C@@H](O)C=C[C@H]3[C@H]1C5 [Morphine] |  | Reversal of the inhibition of the contractions was effected
